Assay results taken from patent US10980818B2, “Methods for treating ocular inflammatory diseases” (SUN PHARMA GLOBAL FZE, priority 2009, dated 2021).

Experiment: Release of fluorometholone from the gel in the rabbit eye, measured in the aqueous humor
Format: in vivo
Conditions: measured by fluorometholone contained in the aqueous humor; from the gel of the aqueous polymer suspension
Description: The viscous gels that result from fluid eyedrops delivered by means of the aqueous suspensions of this invention have residence times in the eye ranging from about 2 to about 12 hours, e.g., from about 3 to about 6 hours. The active ingredients contained in these ophthalmically acceptable vehicles can be released from the gels at rates that depend on such factors as the active ingredient itself and its physical form, the extent of drug loading and the pH of the system, as well as on any drug delivery adjuvants, such as ion exchange resins compatible with the ocular surface, which can also be present.

- Release rates in the rabbit eye: in excess of four hours
Compound: CC(=O)[C@@]1(O)CC[C@H]2[C@@H]3C[C@H](C)C4=CC(=O)C=C[C@]4(C)[C@@]3(F)[C@@H](O)C[C@@]21C [fluorometholone]
